Laboratory results: paper PMC5618656, “Interference of Paraben Compounds with Estrogen Metabolism by Inhibition of 17β-Hydroxysteroid Dehydrogenases” (International Journal of Molecular Sciences, 2017)
Where two headings read alike, the source gives them in different places.

Key:
[1] = biological target: T1, 17β-hydroxysteroid dehydrogenase 2 (17β-HSD2) (Homo sapiens, UniProt P37059); assay: radiolabeled estradiol to estrone conversion in lysates of HEK-293 cells transfected with human […]β-HSD2; assay type: biochemical
T1 construct: gene HSD17B2
T1 sequence (P37059 1-387): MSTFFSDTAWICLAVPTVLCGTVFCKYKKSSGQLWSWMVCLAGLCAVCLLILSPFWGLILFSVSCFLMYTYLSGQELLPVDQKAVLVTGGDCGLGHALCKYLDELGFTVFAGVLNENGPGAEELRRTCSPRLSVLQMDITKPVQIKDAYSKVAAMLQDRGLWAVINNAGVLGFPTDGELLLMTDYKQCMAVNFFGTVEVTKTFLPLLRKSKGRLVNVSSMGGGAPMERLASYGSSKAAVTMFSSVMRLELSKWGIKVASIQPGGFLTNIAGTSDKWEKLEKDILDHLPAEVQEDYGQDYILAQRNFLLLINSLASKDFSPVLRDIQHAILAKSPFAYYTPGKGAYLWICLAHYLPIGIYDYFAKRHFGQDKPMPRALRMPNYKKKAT

[2] = biological target: T1, 17β-hydroxysteroid dehydrogenase 2 (17β-HSD2); assay: biochemical; parameters: species or system HEK-293 (transiently transfected); Radiolabeled estradiol to estrone conversion (200 nM, NAD+) in lysates of 17β-HSD2-transfected cells; TLC and scintillation counting
Method: Lysate activity assays were performed as previously described. Briefly, HEK-293 cells (ATCC) were transiently transfected with expression constructs for human 17β-HSD1 or 17β-HSD2 using the calcium phosphate precipitation method. Lysates of HEK-293 cells expressing 17β-HSD1 or 17β-HSD2 were incubated at 37 °C for 10 min in TS2 buffer (100 mM NaCl, 1 mM EDTA, 1 mM EGTA, 250 mM sucrose, 1 mM MgCl2, 20 mM Tris-HCl, pH 7.4), containing either the inhibitor at the respective concentration or solvent (0.2% DMSO). 17β-HSD1 activity was determined in the presence of 200 nM estrone, including 50 nCi of [2,4,6,7-^3H]-estrone and 500 μM NADPH. Whereas, the 17β-HSD2 activity was performed in the presence of 200 nM estrone, including 50 nCi of [2,4,6,7-^3H]-estradiol and 500 μM NAD+.  Figure 4 (A) Inhibition of estrone formation by parabens in human embryonic kidney (HEK-293) cell lysates expressing human 17β-HSD2. The conversion of estradiol to estrone was measured in lysates of HEK-293 cells transiently transfected with 17β-HSD2 in the presence of 200 nM radiolabeled estradiol and parabens or paraben-like compounds at a final concentration of 20 µM. 17β-HSD2 inhibitor BM13 served as positive control (compound 22 in [18]). Statistical analyses were performed using one-way analysis of variance (ANOVA) test followed by a Dunnett post-hoc test. […] (B) Concentration-dependent inhibition of 17β-HSD2 by ethylparaben and ethyl vanillate. Results represent the mean ± standard deviation (SD) of three independent measurements. To determine 17β-HSD1 activity in COV434 cells, cells were seeded (50,000) into 96-well plates and incubated for 90 min with 200 nM estrone, including 50 nCi of [2,4,6,7-^3H]-estrone in serum-free charcoal treated media containing either the inhibitor at the respective concentration or solvent (0.1% DMSO). Both activity essays were stopped by adding a 1:1 ratio of 2 mM unlabeled estrone and estradiol in methanol. Radiolabeled steroids were obtained from Perkin-Elmer (Boston, MA, USA) whereas normal steroids and cofactors were purchased from Sigma-Aldrich. Estrogens were separated by thin layer chromatography and samples were analyzed using scintillation counting. All data were collected from at least three independent measurements.

[3] = biological target: T2, 17β-hydroxysteroid dehydrogenase 1 (17β-HSD1) (Homo sapiens, UniProt P14061); assay: biochemical; parameters: species or system HEK-293 (transiently transfected); Radiolabeled estrone to estradiol conversion (200 nM, NADPH) in lysates of 17β-HSD1-transfected cells; TLC and scintillation counting
T2 construct: gene HSD17B1
T2 sequence (P14061 2-328): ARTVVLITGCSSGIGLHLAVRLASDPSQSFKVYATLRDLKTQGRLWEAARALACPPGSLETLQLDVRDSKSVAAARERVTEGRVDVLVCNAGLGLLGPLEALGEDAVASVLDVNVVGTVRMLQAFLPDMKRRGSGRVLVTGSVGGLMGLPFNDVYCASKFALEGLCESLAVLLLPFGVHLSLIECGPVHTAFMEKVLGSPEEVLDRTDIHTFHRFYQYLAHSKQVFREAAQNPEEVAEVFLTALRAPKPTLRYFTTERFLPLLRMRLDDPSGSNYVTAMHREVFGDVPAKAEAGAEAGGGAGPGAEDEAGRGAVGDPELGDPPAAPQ
Method: Lysate activity assays were performed as previously described. Briefly, HEK-293 cells (ATCC) were transiently transfected with expression constructs for human 17β-HSD1 or 17β-HSD2 using the calcium phosphate precipitation method. Lysates of HEK-293 cells expressing 17β-HSD1 or 17β-HSD2 were incubated at 37 °C for 10 min in TS2 buffer (100 mM NaCl, 1 mM EDTA, 1 mM EGTA, 250 mM sucrose, 1 mM MgCl2, 20 mM Tris-HCl, pH 7.4), containing either the inhibitor at the respective concentration or solvent (0.2% DMSO). 17β-HSD1 activity was determined in the presence of 200 nM estrone, including 50 nCi of [2,4,6,7-^3H]-estrone and 500 μM NADPH. Whereas, the 17β-HSD2 activity was performed in the presence of 200 nM estrone, including 50 nCi of [2,4,6,7-^3H]-estradiol and 500 μM NAD+.  Figure 6 (A) Inhibition of 17β-HSD1 activity by parabens. 17β-HSD1 activity was measured in lysates of transiently-transfected HEK-293 cells, using DMSO as a negative, and apigenin as a positive, control. Statistical analyses were performed using one-way ANOVA followed by a Dunnett post-hoc test. […] (B) Concentration-dependent inhibition of 17β-HSD1 by [compound left out]- and heptylparaben. The conversion of estrone to estradiol was measured in lysates of HEK-293 cells transfected with 17β-HSD1 and (C) in intact human COV434 granulosa cells endogenously expressing 17β-HSD1. Results represent the mean ± SD of three independent experiments. To determine 17β-HSD1 activity in COV434 cells, cells were seeded (50,000) into 96-well plates and incubated for 90 min with 200 nM estrone, including 50 nCi of [2,4,6,7-^3H]-estrone in serum-free charcoal treated media containing either the inhibitor at the respective concentration or solvent (0.1% DMSO). Both activity essays were stopped by adding a 1:1 ratio of 2 mM unlabeled estrone and estradiol in methanol. Radiolabeled steroids were obtained from Perkin-Elmer (Boston, MA, USA) whereas normal steroids and cofactors were purchased from Sigma-Aldrich. Estrogens were separated by thin layer chromatography and samples were analyzed using scintillation counting. All data were collected from at least three independent measurements.

[4] = biological target: T1, 17β-hydroxysteroid dehydrogenase 2 (17β-HSD2); assay: radiolabeled estradiol conversion in lysates of transfected HEK-293 cells at […]; also significant at […]; assay type: cell-based; details: HEK293
[5] = biological target: T2, 17β-hydroxysteroid dehydrogenase 1 (17β-HSD1); assay: radiolabeled estrone to estradiol conversion in lysates of transfected HEK-293 cells; also intact COV434 cells (IC50 […]); assay type: biochemical
[6] = biological target: T1, 17β-hydroxysteroid dehydrogenase 2 (17β-HSD2); assay: radiolabeled estradiol conversion in lysates of transfected HEK-293 cells, single concentration […]; assay type: cell-based; details: HEK293
[7] = biological target: T2, 17β-hydroxysteroid dehydrogenase 1 (17β-HSD1); assay: radiolabeled estrone conversion in lysates of transfected HEK-293 cells, single concentration […]; assay type: cell-based; details: HEK293
[8] = biological target: T2, 17β-hydroxysteroid dehydrogenase 1 (17β-HSD1); assay: radiolabeled estrone to estradiol conversion in lysates of transfected HEK-293 cells; also intact COV434 cells (IC50 […]); assay type: biochemical; remark: listed apart in the source

Row | SMILES | inhibition at 20 µM [2] | inhibition at 20 µM [3] | also measured
1 | CCCCCCOC(=O)c1ccc(O)cc1 [6-P, hexylparaben] | – | 80 ± 5% | inhibition at 20 µM [4]: 58%; IC50 [5]: 2600 nM
2 | O=C(OCc1ccccc1)c1ccc(O)cc1 [benzylparaben] | – | – | inhibition at 20 µM [6]: 64%; inhibition at 20 µM [7]: 67%
3 | CCCCOC(=O)c1ccc(O)cc1 [butylparaben] | 30 ± 7% | 52 ± 10% | –
4 | CCOC(=O)c1ccc(O)c(OC)c1 [ethyl vanillate] | – | – | IC50 [1]: 1300 nM
5 | CCCCCCCOC(=O)c1ccc(O)cc1 [heptylparaben] | – | 83 ± 6% | inhibition at 20 µM [6]: 76%; IC50 [8]: 1800 nM
6 | CC(C)OC(=O)c1ccc(O)cc1 [isopropylparaben] | 60 ± 1% | 32 ± 9% | –
7 | COC(=O)c1ccc(O)cc1 [methylparaben] | 50 ± 6% | 0% | –
8 | O=C(O)c1ccc(O)cc1 [p-hydroxybenzoic acid] | 0% | 7 ± 11% | –

More lines, main results first:

Row | inhibition at 20 µM [2] | inhibition at 20 µM [3] | SMILES | also measured
9 | 74 ± 4% | 7 ± 6% | CCOC(=O)c1ccc(O)cc1 [2-P, ethylparaben] | IC50 [1]: 4600 nM
10 | 53 ± 7% | – | CC(C)COC(=O)c1ccc(O)cc1 [isobutylparaben] | inhibition at 20 µM [7]: 65%
11 | – | 35 ± 1% | O=C(Oc1ccccc1)c1ccc(O)cc1 [phenylparaben] | inhibition at 20 µM [6]: 64%
12 | 37 ± 6% | 37 ± 5% | CCCOC(=O)c1ccc(O)cc1 [propylparaben] | –
